Reference: ChEMBL document CHEMBL1143588, “Novel and potent 17beta-hydroxysteroid dehydrogenase type 1 inhibitors” (J Med Chem, 2005)

How the values were obtained:
Format in all cases: cell-based
[1] = biological target: T1, 17-beta-hydroxysteroid dehydrogenase type 1 (Homo sapiens, UniProt P14061); assay: Inhibitory activity against 17 beta hydroxysteroid dehydrogenase type 1 in T47D cells
T1 sequence (P14061 whole entry): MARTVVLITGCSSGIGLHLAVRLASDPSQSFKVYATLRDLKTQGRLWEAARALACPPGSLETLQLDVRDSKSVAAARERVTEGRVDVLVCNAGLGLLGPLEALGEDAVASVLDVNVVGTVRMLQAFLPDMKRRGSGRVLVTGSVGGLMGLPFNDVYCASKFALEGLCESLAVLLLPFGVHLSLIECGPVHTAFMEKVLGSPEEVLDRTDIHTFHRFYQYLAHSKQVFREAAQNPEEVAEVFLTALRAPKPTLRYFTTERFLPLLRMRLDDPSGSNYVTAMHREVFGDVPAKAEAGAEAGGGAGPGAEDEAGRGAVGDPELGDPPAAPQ

[2] = biological target: T2, 17-beta-hydroxysteroid dehydrogenase type 1 (Homo sapiens) (UniProt P14061); assay: Inhibitory activity against 17 beta hydroxysteroid dehydrogenase type 1 at 10 uM in T47D cells
T2 sequence (whole entry): T1 sequence (P14061 whole entry)

[3] = biological target: T3, 17-beta-hydroxysteroid dehydrogenase type 2 (Homo sapiens) (UniProt P37059); assay: Inhibitory activity against 17 beta hydroxysteroid dehydrogenase type 2 at 10 uM in MDA-MB-231 cells
T3 sequence (whole entry): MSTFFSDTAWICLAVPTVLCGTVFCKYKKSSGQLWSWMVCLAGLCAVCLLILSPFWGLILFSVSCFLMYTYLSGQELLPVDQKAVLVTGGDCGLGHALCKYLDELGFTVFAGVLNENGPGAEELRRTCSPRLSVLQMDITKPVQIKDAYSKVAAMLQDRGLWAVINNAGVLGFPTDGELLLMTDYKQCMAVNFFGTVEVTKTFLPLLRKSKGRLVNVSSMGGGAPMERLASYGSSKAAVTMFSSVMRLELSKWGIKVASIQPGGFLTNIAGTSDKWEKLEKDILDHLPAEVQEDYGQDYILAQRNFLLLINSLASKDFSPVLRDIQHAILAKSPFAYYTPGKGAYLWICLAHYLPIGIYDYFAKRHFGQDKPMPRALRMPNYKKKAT

Structure (SMILES)	IC50 [1] [nM]	inhibition [2] [%]	inhibition [3] [%]
C[C@]12CC[C@@H]3c4ccc(O)cc4CCC3[C@@H]1CC(CC(=O)NCc1cccnc1)C2=O (single isomer, unassigned)	37	97	26
COc1cc2c(cc1O)CCC1[C@@H]2CC[C@]2(C)C(=O)C(CC(=O)NCc3cccnc3)C[C@@H]12 (single isomer, unassigned)	290	96	0
CCc1cc2c(cc1O)CCC1[C@@H]2CC[C@]2(C)C(=O)C(CC(=O)NCc3cccnc3)C[C@@H]12 (single isomer, unassigned)	27	99	-5
